In EP0002058A1, “3-(2-Aminoethylthio-6-ethyl-7-oxo-1-azabicylo-(3.2.0)-hept-2-en-2-carboxylic acid, process for preparing it and compositions comprising it” (SANRAKU-OCEAN CO., LTD., priority 1977, dated 1979):
≈ marks a conversion by molar mass, not a printed value. Structures can show the parent of a compound that is named as a salt.

Assays:
[1] = system: Comanonas terrigena B-996; experiment: Bioassay of antibacterial potency (disc on agar assay plate, CCU); type: cell-based; conditions: purified solid preparation
Source text: • (1) Cells of Comanonas terrigena B-996, cultivated on a nutrient agar overnight, are suspended in a nutrient broth to give a seed culture having an absorbance at […], ascribable to the cells, of 0.04. A melted agar medium consisting of 0.8% Kyokuto powdered bouillon (Kyokuto Seiyaku Kogyo) and 1% Bacto agar (Difco Labs.) is inoculated with 1% of the seed culture. Seven ml portions of the agar medium are poured into petri dishes with a diameter of 9 cm and solidified to prepare a Comamonas assay plate. • (2) Staphylococcus aureus FDA209P is cultivated overnight with shaking in a nutrient broth. The culture is diluted to 50 times with a nutrient broth to obtain a seed culture. A melted agar medium consisting of 1% Kyokuto powdered bouillon (Kyokuto Seiyaku Kogyo) and 1% Bacto agar (Difco Labs.) is inoculated with 1% of the seed culture. Seven ml portions of the agar medium are poured into petri dishes with a diameter of 9 cm and solidified to prepare a Staphylococcus assay plate. • (3) A pulp disc with a diameter of 8 mm is soaked in a sample solution and put on the assay plate mentioned above after removing an excess of the sample solution soaked by placing on filter paper. […] The diameter of the inhibitory zone is measured. TIle concentration of the test compound in the sample solution is calculated by comparing the diameter with that of the standard solution.

[2] = system: Klebsiella pneumoniae K-2; experiment: Minimum inhibitory concentration, broth dilution method (brain heart infusion medium); type: cell-based; conditions: K2, inoculum about 1 x 10^5/ml, 35°C, 20 hours
Method: (§1) The minimum inhibitory concentration was determined on various pathogenic microorganisms including a resistant strain to the N-desacetyl derivative by the broth dilution method with a brain heart infusion medium "Eiken" (Eiken Kagaku Co.). Sample solutions to be tested were prepared in a serial dilution with the medium, which were inoculated with the test microorganisms at the final cell count of about 1 x 10^5/ml and incubated at 35 °C. After 20 hours the microbial growth was examined. The minimum inhibitory concentration was determined as the lowest concentration of the sample at which no growth of the corresponding test microorganism was observed.

[3] = system: Staphylococcus aureus Russel; experiment: as above; type: cell-based; conditions: inoculum about 1 x 10^5/ml, 35°C, 20 hours
Method: as §1

[4] = system: Staphylococcus aureus FDA 209P; experiment: as above; type: cell-based; conditions: for MIC: Staphylococcus aureus, FDA209P, inoculum about 1 x 10^5/ml, 35°C, 20 hours
Method: as §1

Solubility = type: physicochemical
[5] = system: pathogenic Gram-positive bacteria; experiment: Activity in vivo (general statement); conditions: mice infected with pathogenic Gram-positive bacteria
[6] = parameters: species or system male ddy mice; conditions: mouse, in vivo, ip, 500 mg/kg
[7] = system: Staphylococcus aureus Smith; experiment: Activity in vivo in mice inoculated intraperitoneally with Staphylococcus aureus Smith; parameters: species or system male ddy mice; conditions: sc, 5 x 10^5 cells/mouse intraperitoneally, injected subcutaneously immediately after the inoculation, read-out: CD50 value
Method: The N-desacetyl derivative was prepared on a large scale in a similar manner to the above-described and the activity in vivo was determined in mice inoculated with 5 x 10^5 cells/mouse of Staphylococcus aureus Smith intraperitoneally. The derivative was injected subcutaneously immediately after the inoculation.

staphylococcal bacteria = experiment: Antimicrobial spectrum (general statement); type: cell-based

SMILES | antibacterial potency [1] | MIC [2] [µg/mL] | MIC [3] [µg/mL] | MIC [4] [µg/mL] | other results
CC[C@H]1C(=O)N2C(C(=O)O)=C(SCCNC(C)=O)C[C@H]12 (relative stereo) [PS-5 sodium salt, reference compound] | 21,000 CCU/mg |  |  |  | 
CO[C@@]1(NC(=O)Cc2cccs2)C(=O)N2C(C(=O)O)=C(COC(N)=O)CS[C@@H]21 [Cefoxitin, reference compound] |  | 12.5 (≈ 29.2 µM) | 3.13 (≈ 7.32 µM) | 1.56 (≈ 3.65 µM) | 
CCC1C(=O)N2C(C(=O)O)=C(SCCN)CC12 (stereo not drawn) [N-desacetyl derivative] |  | 5 (≈ 19.5 µM) | 0.063 (≈ 0.246 µM) | 0.008 (≈ 0.0312 µM) | Solubility in acetone, ethyl acetate and benzene (Solubility; acetone, ethyl acetate and benzene): practically insoluble; Solubility in water (Solubility; water): easily soluble; inhibitory activity relative to that of the antibiotic PS-5 ([4]; Staphylococcus aureus FDA 209p, times higher than antibiotic PS-5): about 10 times; therapeutic effect [5]: remarkable therapeutic effect; acute toxicity [6]: No acute toxicity; ED50 [7]: 0.55 mg/kg; antimicrobial activity (staphylococcal bacteria): high antimicrobial activity
CC[C@H]1C(=O)N2C(C(=O)OC(c3ccccc3)(c3ccccc3)c3ccccc3)=C(SCCNC(C)=O)C[C@H]12 (relative stereo) [trityl ester of antibiotic PS-5] | 10,800 CCU/mg |  |  |  | 
